For one test, the system named is cerebellar microexplants. In words: Cerebellar microexplant survival assay (3-NP/glutamate injury). It is filed as cell-based, Wistar rat. Conditions: 100 fM; administered simultaneously with toxins (0.5 mM 3-NP, 0.5 mM glutamate), severe injury. The protocol: (§1) Laminated cerebellar cortices of the two hemispheres were explanted from a P3, P4, P7 or P8 Wistar rat, cut into small pieces in GBSS with 0.65% D(+)glucose solution, and triturated by a 0.4 mm gauge needle and subsequently pressed through a 125 μm pore size sieve. The obtained microexplants were centrifuged (60×g) 2 times for a medium exchange into serum-free BSA-supplemented START V-medium (Biochrom). Finally, the microexplants were reconstituted in 500 μl STARTV-medium. For culturing, 38 μl of the cell suspension was incubated for 1 hour on a poly-D-lysine-coated cover slip in a 35 mm Petri dish under an atmosphere comprising 5% CO2 in air and 100% humidity at 34° C. Subsequently, the injuring toxins (as described below), NRPs and 1 ml of STARTV-medium were added, and the cultures were evaluated after 2-3 days of culture.
Toxicological and drug administration experiments were designed such that 1/100 parts of toxin and neuroprotective drug were administered simultaneously to the freshly prepared cerebellar microexplants. […]
For statistical analysis of survival, four fields (each field having an area of 0.65 mm^2) of each fixed cerebellar culture with the highest cell densities were chosen, and cells displaying neurite outgrowth were counted (survival assay).

For a further test, the system named is cerebellar cells. As to the kind of experiment: Cerebellar microexplant proliferation assay (BrdU). It is filed as cell-based, Wistar rat. The protocol: as §1
Toxicological and drug administration experiments were designed such that 1/100 parts of toxin and neuroprotective drug were administered simultaneously to the freshly prepared cerebellar microexplants. Glutamate was prepared as a 50 mM stock solution in MilliQ water while 50 mM 3-nitropropionic acid was pH-adjusted (pH 6.8-7.2) in MilliQ water. The concentrations of the oxidative stress inducing toxin, 3-nitropropionic acid (3-NP), and the excitotoxin, glutamate, in the assay were 0.5 mM each. Lyophilized peptides were reconstituted in PBS or 100 μg/ml human transferrin as a 10 μM stock solution. Subsequently, serial dilutions were made. Cerebellar microexplants were cultivated for 48-72 hours at 34° C., 5% CO2 in air and 100% humidity before they were fixed by increasing amounts of paraformaldehyde (0.4%, 1.2%, 3% and 4%—each treatment 2-3 min).
Using the toxins described above, cerebellar explants were exposed for 24 hours, at the beginning of culturing to dilutions of NRP (survival assay) or NRP and 0.1 μM BrdU (proliferation assay). Subsequently, 80% of the medium was changed without addition of new toxins and NRPs. […]
For statistical analysis of proliferation BrdU-positive nuclei were counted. Statistical significance was measured by Student's t-test.

Test [1] has as its system purified primary placental trophoblasts. As to the kind of experiment: TNF-alpha-induced cytotoxicity in isolated trophoblasts (survival assay). Format: cell-based, human. The following applies: 24 hrs pre-incubation. The method, then:
Human trophoblast cells were isolated from term placentas with prior approval by the Ethics Committee of the University of Auckland and consent of the patients. The maternal decidua was removed, exposing the villous interior of the placenta. Pieces of villous tissue were cut out and washed thoroughly with PBS before digestion using 0.25% trypsin. The digest was then diluted in Locke Ringers Buffer and DNAase I. Digestion of connective tissue surrounding the placental cells was carried out while stirring the mixture with a magnetic stirrer at a temperature of 37° C. The process was repeated 8 times, with the last 6 supernatants being collected in a bottle containing fetal bovine serum (FBS). The digestion step produced a heterogeneous dispersed cell preparation. The pooled supernates was centrifuged for 7 minutes at 1200 rpm. The cell pellet was resuspended in PBS and centrifuged. This was followed by a 10-minute incubation in erythrocyte lysis buffer with an underlayer of FBS in the last 2 minutes, followed by centrifugation for 7 minutes. Cells were resuspended in M199 medium and recentrifuged.
Cells were then purified using a percoll gradient (5, 20, 30, 35, 40, 50 and 60%). The gradients were prepared with the 60% percoll on the bottom, with decreasing concentrations near the top of the gradient. Cells were introduced into the 5% percoll layer. The cells were centrifuged for 20 minutes at 1200G to separate trophoblasts from debris and other cell types, leaving a band of trophoblasts in the 40% percoll band. This band was collected, the cells washed in M199 medium centrifuged and finally counted and plated according to the methods of Keelan et al, 1998.
In this series of experiments, we studied whether NRP-5RG D6A was able to protect purified primary placental trophoblasts against TNF-alpha mediated injury.
In this study, we plated 30,000 freshly isolated trophoblast cells per well in microtiter well plates followed by pre-incubation with NRP-5RG D6A (SEQ ID NO: 1) for 24 hours. […]

A further test deals with JAr cells. In words: TNF-alpha-induced cytotoxicity in immortalized trophoblast cell line. Format: cell-based, human. The protocol:
Choriocarcinoma cells (Jeg-3, BeWo and Jar; ATCC) were cultured under similar conditions in DMEM/F-12 cell culture medium in 75 cm2 flasks with filter tops (Raylab). Cells were allowed to adhere and grow in an incubator equilibrated in 95%/5% air/CO2 to approximately 70% confluence, before being split every 2 to 3 days by addition of 2 ml of 1× concentrated trypsin-EDTA. After a centrifugation step for 5 min at 1100 rpm, cells were resuspended in 15 ml of fresh DMEM/F-12 in sterile tissue flasks and placed back in the incubator.
In this study, we plated 50,000 JAr cells per well. JAr cells are an immortalized line of cells derived from a human choriocarcinoma cells. Wells were pre-incubated with NRP-5RG D6A (SEQ ID NO: 1) at the concentrations indicated in FIG. 12, or epidermal growth factor (EGF; 5 ng/ml) for 2 hours. Subsequently, cells were exposed to the cultures for 48 hours to TNF-alpha (5 ng/ml) and interferon-gamma (5 ng/ml) to induce stress.

Test [2] relates to primary human trophoblasts. As to the kind of experiment: Trophoblast proliferation assay (BrdU incorporation). Format: cell-based. The protocol:
Cell proliferation was determined by BrdU incorporation to examine the effects of NRP-5RG D6A on the proliferation of trophoblasts. EGF (0.8×10^−9 M) was used as a positive control, since studies have previously shown it plays a role in enhancing trophoblast proliferation (Maruo et al., 1992).
Initially cells were treated with NRP-5RG D6A (SEQ ID NO: 1), EGF and BrdU (0.05 μM) for 72 hrs. After the first 24 hrs, an 80% media change was carried out since BrdU is toxic over long incubation periods. Following 72 hrs of incubation, the reaction was stopped by fixation in 4% PFA. However, with this experimental design, most trophoblasts would form syncytia by the end of the 72 hrs, hindering accurate examination of the proliferative effect of NRP-5RG D6A on trophoblasts. […] This allowed analysis of proliferation of mononuclear trophoblasts.
Cell proliferation was evaluated over 24 hrs after seeding 1.3×10^5 cells/cm^2 in culture media (1% serum) treated with 0.05 μM BrdU, NRP-5RG D6A and EGF (FIG. 13).
Background: Dividing cells build labelled thymidine or BrdU into new DNA.

Where no end group is shown, it is not given here.

For the substance “REGRRAAPGRAGG-NH2 (listed as Homo sapiens) [SEQ ID NO: 1, 13-mer NRP analogue]”, the “survival rates, neuroprotection” value with cerebellar microexplants is on record as 39.1%. In addition, the “proliferation rate compared to the uninjured vehicle” value in the test with cerebellar cells (1 pM, BrdU) was “increased the proliferation rate in these cultures significantly”. Moreover, the “proliferation compared against injured cells without NRP” value with cerebellar cells (p<0.01, SEQ ID NO: 1 at 1 pM, SEQ ID NO: 2 at 100 pM) is reported as “highly proliferation-inducing”. The “protection from TNF-alpha mediated injury” value in test [1] (1 pM, TNF-alpha 5 or 50 ng/ml plus interferon gamma, 48 h) is recorded as 100%. Also, the “cytoprotection from TNF-alpha mediated injury” value in test [1] (10 pM) was “protective”; in test [1] (1 nM), “not statistically significant”. Besides, the “rescue effect at further increased concentration” value in the test on JAr cells (1 nM) was “reduced rescue effect”. Also, the “concentration at which a significant rescue effect was observed” value in the test on JAr cells (2 hours pre-incubation, TNF-alpha 5 ng/ml and interferon-gamma 5 ng/ml, 48 hours) is 10 fM. Also, the “trophoblast proliferation compared to the control” value in test [2] (10^−13 M, 24 hrs, BrdU) is “no increase in proliferation”. Further, the “increase in trophoblast proliferation” value in test [2] (10^−14 M, 24 hrs, BrdU) came to 183.3±50.2%. Besides, the “trophoblast proliferation at other concentrations” value in test [2] (any concentration other than 10^−14 M (higher concentrations, data not shown)) is recorded as “no proliferative effect”.

Source of the values: patent US8138304B2, “Neural regeneration peptides and formulations thereof” (Neuren Pharmaceuticals Limited, priority 2005, dated 2012).
